From ChEMBL document CHEMBL4043296 (J Med Chem, 2018) come the findings set out here.

For series [1], the system named is MDR1. Kind of series: Apparent passive permeability across basolateral to apical side in MDCK2 cells expressing MDR1 at 3 uM after 60 mins by mass spectroscopy. It is filed as ADME, cell-based, Canis lupus familiaris, MDCK-II. To be noted: dog, MDCK-MDR1.
Series [2] in a line: Half life in mouse liver microsomes at 0.5 uM preincubated for 30 mins followed by NADPH addition measured over 30 mins by HPLC-MS/MS method. It is filed as ADME, microsome. (Liver microsomes are a subcellular fraction often used to study metabolism.)
Series [3] addresses T1, Muscarinic acetylcholine receptor M1 (Homo sapiens) (UniProt P11229).
T1 sequence (whole entry): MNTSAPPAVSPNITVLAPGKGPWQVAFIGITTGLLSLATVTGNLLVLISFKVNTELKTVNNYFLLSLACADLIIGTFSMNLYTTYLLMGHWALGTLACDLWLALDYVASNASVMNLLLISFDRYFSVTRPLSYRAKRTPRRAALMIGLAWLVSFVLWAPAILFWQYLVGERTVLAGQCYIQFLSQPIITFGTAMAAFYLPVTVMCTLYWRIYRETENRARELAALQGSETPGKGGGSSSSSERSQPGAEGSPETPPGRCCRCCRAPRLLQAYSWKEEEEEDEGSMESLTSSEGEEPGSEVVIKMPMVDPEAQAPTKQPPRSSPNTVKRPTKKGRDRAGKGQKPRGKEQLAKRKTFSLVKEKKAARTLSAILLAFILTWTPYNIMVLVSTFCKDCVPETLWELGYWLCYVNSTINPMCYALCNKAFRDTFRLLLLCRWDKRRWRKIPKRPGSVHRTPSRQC
Kind of series: Agonist activity at human SP/Myc epitope-tagged muscarinic M1 receptor expressed in HEK293T cells assessed as RLuc8-fused Galphaq activation after 2 mins by BRET assay relative to carbachol. It is filed as cell-based. To be noted: HEK-293T. Background: BRET reads energy transfer from a luciferase to a nearby fluorophore.

Series [4] deals with T2, D(4) dopamine receptor (Homo sapiens, UniProt P21917).
T2 sequence (P21917 whole entry): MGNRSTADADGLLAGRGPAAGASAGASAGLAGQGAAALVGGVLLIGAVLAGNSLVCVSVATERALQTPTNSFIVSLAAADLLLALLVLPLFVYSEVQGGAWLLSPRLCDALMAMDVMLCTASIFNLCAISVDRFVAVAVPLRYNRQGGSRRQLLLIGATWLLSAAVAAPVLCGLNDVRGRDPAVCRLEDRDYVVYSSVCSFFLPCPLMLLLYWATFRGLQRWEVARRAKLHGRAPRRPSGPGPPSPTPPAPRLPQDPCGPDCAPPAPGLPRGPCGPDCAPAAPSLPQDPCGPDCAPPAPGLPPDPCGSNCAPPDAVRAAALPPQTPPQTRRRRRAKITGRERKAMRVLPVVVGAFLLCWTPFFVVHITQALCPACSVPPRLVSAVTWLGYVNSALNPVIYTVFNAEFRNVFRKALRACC
Kind of series: Antagonist activity at human SP/Myc epitope-tagged dopamine D4 receptor expressed in HEK293T cells assessed as inhibition of dopamine-induced mVenus-fused beta-arrestin2 recruitment preincubated for 15 mins followed by dopamine induction measured after 2 mins by BRET assay. It counts as cell-based, HEK-293T. A general note: Arrestin recruitment assays detect the binding of arrestin to an activated receptor.

Series [5] has as its target T3, Muscarinic acetylcholine receptor M4 (Homo sapiens, UniProt P08173).
T3 sequence (P08173 whole entry): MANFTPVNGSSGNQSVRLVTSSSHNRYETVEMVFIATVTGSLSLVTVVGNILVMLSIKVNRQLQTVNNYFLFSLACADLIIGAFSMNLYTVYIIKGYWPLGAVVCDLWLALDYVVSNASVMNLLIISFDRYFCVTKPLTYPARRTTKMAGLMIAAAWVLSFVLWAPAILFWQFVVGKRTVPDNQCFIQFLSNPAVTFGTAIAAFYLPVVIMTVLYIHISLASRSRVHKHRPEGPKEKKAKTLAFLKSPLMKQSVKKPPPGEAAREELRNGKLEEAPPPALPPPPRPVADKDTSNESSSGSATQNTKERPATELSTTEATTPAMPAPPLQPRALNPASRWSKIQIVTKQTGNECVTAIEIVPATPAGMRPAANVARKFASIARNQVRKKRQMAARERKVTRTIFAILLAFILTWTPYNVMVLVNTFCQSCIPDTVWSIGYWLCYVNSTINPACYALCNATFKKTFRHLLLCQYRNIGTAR
Kind of series: Displacement of [3H]NMS from human muscarinic M4 receptor expressed in CHO cell membranes after 2 hrs by liquid scintillation counting method.

The target of series [6] is T4, Muscarinic acetylcholine receptor M4 (Homo sapiens) (UniProt P08173).
T4 sequence (whole entry): T3 sequence (P08173 whole entry)
As to the kind of experiment: Agonist activity at human SP/Myc epitope-tagged muscarinic M4 receptor expressed in HEK293T cells assessed as RLuc8-fused Galphaq activation after 2 mins by BRET assay relative to carbachol. It counts as cell-based. The following applies: HEK-293T.

Series [7] has as its system MDR1. Kind of series: Apparent passive permeability across apical to basolateral side in MDCK2 cells expressing MDR1 at 3 uM after 60 mins by mass spectroscopy. It is filed as ADME, cell-based, Canis lupus familiaris, MDCK-II. The following applies: dog, MDCK-MDR1.
Series [8] has as its target Beta-1 adrenergic receptor (Homo sapiens, UniProt P08588). Kind of series: Displacement of [3H]CGP12177 from human recombinant beta1 adrenergic receptor expressed in HEK293 cell membranes after 90 mins by beta counting method.
In series [9] the target is Sodium-dependent serotonin transporter (Rattus norvegicus, UniProt P31652). Kind of series: Displacement of [3H]-citalopram from SERT in Sprague-Dawley rat midbrain after 60 mins by scintillation counting method.
The nature of series [10]: Fraction unbound in human plasma at 0.5 uM by equilibrium dialysis method. It counts as ADME, cell-free.
Series [11] has as its target T1, Muscarinic acetylcholine receptor M1 (Homo sapiens). Kind of series: (§1) Antagonist activity at human SP/Myc epitope-tagged muscarinic M1 receptor expressed in HEK293T cells assessed as inhibition of carbachol-induced mVenus-fused beta-arrestin2 recruitment preincubated for 15 mins followed by carbachol induction measured after 2 mins by BRET assay. The following applies: HEK-293T. It counts as cell-based.

For series [12], the target named is T5, Muscarinic acetylcholine receptor M1 (Homo sapiens, UniProt P11229).
T5 sequence (P11229 whole entry): T1 sequence (whole entry)
The description is as §1. It is filed as cell-based, HEK-293T.

For series [13], the target named is T6, Alpha-1B adrenergic receptor (Homo sapiens, UniProt P35368).
T6 sequence (P35368 whole entry): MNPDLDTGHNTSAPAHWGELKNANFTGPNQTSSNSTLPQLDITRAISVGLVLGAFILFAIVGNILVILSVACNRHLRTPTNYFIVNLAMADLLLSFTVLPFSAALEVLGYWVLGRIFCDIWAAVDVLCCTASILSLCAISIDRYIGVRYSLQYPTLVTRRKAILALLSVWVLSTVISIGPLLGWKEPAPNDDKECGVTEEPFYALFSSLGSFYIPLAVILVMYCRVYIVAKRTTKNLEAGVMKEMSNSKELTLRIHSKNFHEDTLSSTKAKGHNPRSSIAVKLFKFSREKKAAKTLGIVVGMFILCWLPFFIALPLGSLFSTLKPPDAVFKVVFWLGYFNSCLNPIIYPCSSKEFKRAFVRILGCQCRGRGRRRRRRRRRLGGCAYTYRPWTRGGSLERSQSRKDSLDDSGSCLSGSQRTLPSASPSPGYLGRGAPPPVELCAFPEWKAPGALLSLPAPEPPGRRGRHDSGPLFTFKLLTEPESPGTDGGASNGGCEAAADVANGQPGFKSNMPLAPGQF
Kind of series: Displacement of [3H]prazosin from human recombinant alpha-1B adrenergic receptor expressed in CHO cell membranes after 30 mins by liquid scintillation counting method.

Chain of Sodium-dependent serotonin transporter (P31652 whole entry): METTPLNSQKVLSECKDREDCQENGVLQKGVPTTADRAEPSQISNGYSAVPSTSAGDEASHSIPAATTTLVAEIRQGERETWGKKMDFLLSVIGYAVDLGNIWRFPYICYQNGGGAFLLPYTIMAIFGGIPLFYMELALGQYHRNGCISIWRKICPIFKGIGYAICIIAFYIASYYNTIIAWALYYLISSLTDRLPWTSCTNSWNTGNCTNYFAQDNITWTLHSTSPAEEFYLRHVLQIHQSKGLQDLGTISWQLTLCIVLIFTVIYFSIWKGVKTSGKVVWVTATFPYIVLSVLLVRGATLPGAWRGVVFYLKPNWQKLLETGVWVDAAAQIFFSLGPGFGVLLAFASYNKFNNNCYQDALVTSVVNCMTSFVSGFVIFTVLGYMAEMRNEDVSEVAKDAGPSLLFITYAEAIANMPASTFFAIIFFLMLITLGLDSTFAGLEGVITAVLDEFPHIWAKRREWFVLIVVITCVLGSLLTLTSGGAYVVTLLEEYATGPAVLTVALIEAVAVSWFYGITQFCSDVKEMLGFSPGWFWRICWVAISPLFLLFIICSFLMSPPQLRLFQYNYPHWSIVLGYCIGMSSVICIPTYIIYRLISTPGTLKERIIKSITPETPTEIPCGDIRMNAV
Chain of Beta-1 adrenergic receptor (P08588 whole entry): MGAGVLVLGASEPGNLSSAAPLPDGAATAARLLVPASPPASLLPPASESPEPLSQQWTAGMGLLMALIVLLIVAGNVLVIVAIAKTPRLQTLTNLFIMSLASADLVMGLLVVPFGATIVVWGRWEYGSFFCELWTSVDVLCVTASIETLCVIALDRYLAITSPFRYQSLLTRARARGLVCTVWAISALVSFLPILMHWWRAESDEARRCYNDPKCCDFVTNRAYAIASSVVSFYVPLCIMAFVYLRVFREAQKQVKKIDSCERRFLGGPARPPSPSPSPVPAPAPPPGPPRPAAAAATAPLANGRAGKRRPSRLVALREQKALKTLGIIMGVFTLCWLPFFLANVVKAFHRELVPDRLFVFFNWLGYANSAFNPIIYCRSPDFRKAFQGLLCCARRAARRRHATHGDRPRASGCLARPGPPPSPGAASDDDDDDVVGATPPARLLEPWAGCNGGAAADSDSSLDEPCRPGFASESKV

As to `O=C1CCc2ccccc2N1CCCN1CCN(c2ccccc2)CC1`, the basolateral-to-apical permeability (Papp B→A) (commonly the apparent permeability from the basolateral to the apical side of a cell layer) at 1 h, 3 µM in series [1] was 19.7 ×10⁻⁶ cm/s. In addition, the half-life (commonly how long it takes for the measured level to halve) at 0.5 µM in series [2] amounted to 8.71 min. Besides, the Emax (in general, the greatest response seen or fitted, relative to the assay's reference) came out at 42% in series [3] and 17% in series [6]. Further, the concentration for half-maximal inhibition (IC50) (as a rule, the concentration at which inhibition is half-maximal) is 0.724 nM in series [4] and 832 nM in series [12]. Besides, the Ki (usually the dissociation constant of the complex between target and ligand, obtained from inhibition or displacement) is 9330 nM in series [5], 32400 nM in series [8], 5010 nM in series [9] and 74.1 nM in [13]. For the same compound, the Papp A→B (commonly how fast a substance crosses the layer from the apical side) at 1 h, 3 µM in series [7] was found to be 16.2 ×10⁻⁶ cm/s. Also, the fraction unbound (usually free concentration divided by total concentration) at 0.5 µM in series [10] was 0.033. Besides, the Imax in [11] came to 53%.

In the case of `O=C1CCc2ccccc2N1CCCN1CCC(Cc2ccccc2)CC1`, in [1], the basolateral-to-apical permeability (Papp B→A) at 1 h, 3 µM worked out at 20.9 ×10⁻⁶ cm/s. Also, in series [2], the half-life at 0.5 µM was determined as 3.5 min. The values for the Emax in series [3] and in series [6] were 25% and 24%, respectively. The concentration for half-maximal inhibition (IC50) in series [4] is 575 nM; in series [12], 1200 nM. The Ki in [5] is 724 nM; in series [8] it was 10200 nM; in series [9], 46.8 nM; in [13], 224 nM. Besides, the apparent permeability from apical to basolateral (Papp A→B) at 1 h, 3 µM in series [7] worked out at 10.9 ×10⁻⁶ cm/s. The same compound returned an unbound share (fraction unbound) at 0.5 µM in series [10] of 0.057. In addition, the Imax in series [11] is 71%.
